Results from ChEMBL document CHEMBL1212831, “Discovery of N-[(2S)-5-(6-fluoro-3-pyridinyl)-2,3-dihydro-1H-inden-2-yl]-2-propanesulfonamide, a novel clinical AMPA receptor positive modulator” (J Med Chem, 2010).
In brackets after ≈: the same amount, converted by molar mass.

Columns and labels:
[1] = system: Rattus norvegicus; experiment: Liver blood flow in Sprague-Dawley rat at 1 mg/kg, iv and 3 mg/kg, po; format: ADME, organism-based; conditions: in vivo
[2] = Half life in Sprague-Dawley rat at 1 mg/kg, iv; format: ADME, organism-based; parameters: dose 1 mg/kg, route intravenous; conditions: in vivo
[3] = Half life in Sprague-Dawley rat at 3 mg/kg, po; format: ADME, organism-based; parameters: dose 3 mg/kg, route oral; conditions: in vivo
[4] = Blood clearance in Beagle dog at 0.125 mg/kg, iv and 0.5 mg/kg, po; format: ADME, organism-based, Canis lupus familiaris
[5] = Volume of distribution at steady state in Beagle dog at 0.125 mg/kg, iv and 0.5 mg/kg, po; format: ADME, organism-based, Canis lupus familiaris; conditions: in vivo, read-out: Vdss
[6] = Oral bioavailability in Beagle dog at 0.5 mg/kg; format: ADME, organism-based, Canis lupus familiaris; conditions: in vivo
[7] = Tmax in Beagle dog at 0.5 mg/kg, po; format: ADME, organism-based, Canis lupus familiaris; parameters: dose 0.5 mg/kg, route oral; conditions: in vivo
[8] = Half life in Beagle dog at 0.5 mg/kg, po; format: ADME, organism-based, Canis lupus familiaris; parameters: dose 0.5 mg/kg, route oral; conditions: in vivo
[9] = Volume of distribution at steady state in cynomolgus monkey at 0.125 mg/kg, iv and 0.5 mg/kg, po; format: ADME, organism-based, Macaca fascicularis; conditions: in vivo, read-out: Vdss
[10] = Half life in cynomolgus monkey at 0.125 mg/kg, iv; format: ADME, organism-based, Macaca fascicularis; parameters: dose 0.125 mg/kg, route intravenous; conditions: in vivo
[11] = Cmax in cynomolgus monkey at 0.5 mg/kg, po; format: ADME, organism-based, Macaca fascicularis; parameters: dose 0.5 mg/kg, route oral; conditions: in vivo
[12] = Half life in cynomolgus monkey at 0.5 mg/kg, po; format: ADME, organism-based, Macaca fascicularis; parameters: dose 0.5 mg/kg, route oral; conditions: in vivo
[13] = Equilibrium solubility of the compound in water at pH 2 to 10; format: physicochemical
[14] = Equilibrium solubility of the compound in fed simulated intestinal fluid at pH 2 to 10; format: physicochemical
[15] = Chemical stability of the compound; format: physicochemical
[16] = molecular target: T1, Nuclear receptor subfamily 1 group I member 2 (Homo sapiens, UniProt O75469); experiment: Activation of human PXR
T1 sequence (O75469 whole entry): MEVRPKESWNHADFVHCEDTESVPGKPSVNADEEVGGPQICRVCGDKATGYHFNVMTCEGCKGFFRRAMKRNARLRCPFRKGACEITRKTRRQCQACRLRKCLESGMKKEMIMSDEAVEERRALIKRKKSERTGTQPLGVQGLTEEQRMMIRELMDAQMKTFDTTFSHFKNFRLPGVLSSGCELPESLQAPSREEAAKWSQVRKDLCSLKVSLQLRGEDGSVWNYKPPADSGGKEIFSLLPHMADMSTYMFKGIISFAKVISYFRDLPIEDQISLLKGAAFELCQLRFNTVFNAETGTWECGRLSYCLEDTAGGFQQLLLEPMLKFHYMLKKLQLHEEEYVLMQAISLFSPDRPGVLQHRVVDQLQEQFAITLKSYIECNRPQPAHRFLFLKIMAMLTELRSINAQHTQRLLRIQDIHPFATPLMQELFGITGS

[17] = Plasma protein binding in mouse at 1 ug/ml after 6 hrs by equilibrium dialysis method; format: ADME, cell-free; conditions: read-out: PPB (converted)
[18] = Plasma protein binding in dog at 1 ug/ml after 6 hrs by equilibrium dialysis method; format: ADME, cell-free, Canis lupus familiaris; conditions: read-out: PPB (converted)
[19] = Plasma protein binding in monkey at 1 ug/ml after 6 hrs by equilibrium dialysis method; format: ADME, cell-free, Macaca mulatta; conditions: rhesus monkey, read-out: PPB (converted)
[20] = Apparent half life in human; format: ADME, organism-based; conditions: in vivo, read-out: beta t1/2 (converted)
[21] = system: Homo sapiens; experiment: Toxicity in human at 0.25 to 6 mg/kg administered as single dose; format: organism-based; parameters: dose 0.25-6 mg/kg; conditions: in vivo
[22] = system: Homo sapiens; experiment: Toxicity in human at 0.1 mg/kg QD for 28 days; format: organism-based; parameters: dose 0.1 mg/kg; conditions: in vivo, 672 h
[23] = Plasma protein binding in rat at 1 ug/ml after 6 hrs by equilibrium dialysis method; format: ADME, cell-free; conditions: read-out: PPB (converted)
[24] = molecular target: Glutamate receptor 2 (Homo sapiens, UniProt P42262); experiment: Activation of human recombinant GluR2 flip isoform expressed in HEK293 cells assessed as increase of glutamate-induced inward current by whole cell voltage-clamp electrophysiology; format: cell-based
Glutamate receptor 2, sequence (P42262 whole entry, canonical isoform): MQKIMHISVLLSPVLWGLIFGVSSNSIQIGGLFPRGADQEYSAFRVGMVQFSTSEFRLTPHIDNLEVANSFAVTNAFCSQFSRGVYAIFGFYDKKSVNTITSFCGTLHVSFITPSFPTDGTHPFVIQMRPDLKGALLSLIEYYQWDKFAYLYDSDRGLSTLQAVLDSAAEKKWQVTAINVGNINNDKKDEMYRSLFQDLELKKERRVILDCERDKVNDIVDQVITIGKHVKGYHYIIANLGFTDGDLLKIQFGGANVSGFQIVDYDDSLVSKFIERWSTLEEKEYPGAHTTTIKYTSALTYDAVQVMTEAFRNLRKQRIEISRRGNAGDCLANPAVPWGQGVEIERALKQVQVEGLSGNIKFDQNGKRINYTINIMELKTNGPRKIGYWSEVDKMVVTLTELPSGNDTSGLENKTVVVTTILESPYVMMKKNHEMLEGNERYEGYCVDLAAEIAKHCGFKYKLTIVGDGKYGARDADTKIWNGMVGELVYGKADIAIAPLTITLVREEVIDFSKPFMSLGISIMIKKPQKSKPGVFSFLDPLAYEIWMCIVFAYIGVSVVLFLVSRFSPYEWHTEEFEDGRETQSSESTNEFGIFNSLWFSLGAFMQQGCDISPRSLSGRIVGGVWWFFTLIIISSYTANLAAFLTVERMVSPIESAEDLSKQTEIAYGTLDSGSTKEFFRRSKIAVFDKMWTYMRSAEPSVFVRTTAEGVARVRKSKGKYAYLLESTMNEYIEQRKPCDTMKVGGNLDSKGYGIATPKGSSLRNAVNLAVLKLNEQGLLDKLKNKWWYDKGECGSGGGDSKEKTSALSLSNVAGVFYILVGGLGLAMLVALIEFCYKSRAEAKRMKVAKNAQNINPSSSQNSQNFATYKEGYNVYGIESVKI

[25] = system: Rattus norvegicus; experiment: Cognitive enhancing effect in po dosed Lister Hooded rat assessed as reversal of 24 hrs delay-induced retention deficit behavior by novel object recognition assay; format: functional; conditions: read-out: MED
[26] = system: Blood; experiment: Drug level in po dosed Lister Hooded rat blood; format: ADME, organism-based; conditions: in vivo
[27] = system: Brain; experiment: Drug level in po dosed Lister Hooded rat brain assessed per gram of tissue; format: ADME, organism-based; conditions: in vivo
[28] = system: Rattus norvegicus; experiment: Antiamnesic activity in po dosed assessed as inhibition of Scopolamine-induced amnesic deficit administered 3 hrs before Scopolamine challenge by step-down passive avoidance test; format: functional, organism-based; conditions: Wistar
[29] = Blood clearance in Sprague-Dawley rat at 1 mg/kg, iv and 3 mg/kg, po; format: ADME, organism-based
[30] = Volume of distribution at steady state in Sprague-Dawley rat at 1 mg/kg, iv and 3 mg/kg, po; format: ADME, organism-based; conditions: in vivo, read-out: Vdss
[31] = Cmax in Sprague-Dawley rat at 3 mg/kg, po; format: ADME, organism-based; parameters: dose 3 mg/kg, route oral; conditions: in vivo
[32] = Oral bioavailability in Sprague-Dawley rat at 3 mg/kg; format: ADME, organism-based; conditions: in vivo
[33] = molecular target: T2, Cytochrome P450 1A2 (Homo sapiens, UniProt P05177)
T2 sequence (P05177 whole entry): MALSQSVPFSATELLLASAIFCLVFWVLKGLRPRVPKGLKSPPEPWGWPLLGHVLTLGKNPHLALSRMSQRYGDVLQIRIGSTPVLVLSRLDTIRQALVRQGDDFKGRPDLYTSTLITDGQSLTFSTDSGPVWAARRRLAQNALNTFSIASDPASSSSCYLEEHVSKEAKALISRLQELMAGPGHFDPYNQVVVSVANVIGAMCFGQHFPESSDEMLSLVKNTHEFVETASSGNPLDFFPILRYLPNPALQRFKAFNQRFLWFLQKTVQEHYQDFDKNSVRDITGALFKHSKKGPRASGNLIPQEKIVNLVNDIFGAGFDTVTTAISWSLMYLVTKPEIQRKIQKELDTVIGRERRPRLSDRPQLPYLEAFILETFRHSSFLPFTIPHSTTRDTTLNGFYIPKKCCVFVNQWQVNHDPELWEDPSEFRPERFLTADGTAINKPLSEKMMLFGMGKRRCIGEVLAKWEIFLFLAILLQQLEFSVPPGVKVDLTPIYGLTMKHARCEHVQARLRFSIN
Description: Inhibition of human CYP1A2 after 10 mins

[34] = molecular target: Cytochrome P450 2C19 (Homo sapiens, UniProt P33261)
Cytochrome P450 2C19, sequence (P33261 whole entry): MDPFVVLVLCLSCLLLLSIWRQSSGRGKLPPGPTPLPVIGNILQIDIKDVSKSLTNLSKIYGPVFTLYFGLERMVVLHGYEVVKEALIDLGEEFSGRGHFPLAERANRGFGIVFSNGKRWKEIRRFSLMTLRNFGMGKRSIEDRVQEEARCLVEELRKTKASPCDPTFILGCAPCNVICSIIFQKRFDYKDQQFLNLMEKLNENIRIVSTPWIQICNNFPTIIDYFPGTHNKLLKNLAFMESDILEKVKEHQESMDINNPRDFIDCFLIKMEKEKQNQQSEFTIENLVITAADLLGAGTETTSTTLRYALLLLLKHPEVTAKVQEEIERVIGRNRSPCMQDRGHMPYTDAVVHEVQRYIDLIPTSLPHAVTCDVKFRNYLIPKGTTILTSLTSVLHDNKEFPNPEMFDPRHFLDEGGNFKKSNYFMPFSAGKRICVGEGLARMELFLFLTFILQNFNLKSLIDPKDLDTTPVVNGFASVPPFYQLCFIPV
Description: Inhibition of human CYP2C19 after 10 mins

[35] = system: Liver microsomes
[36] = in vivo; conditions: rat, brain/blood
Description: Ratio of brain AUC (0 to t) to blood AUC (0 to t) in rat

LBF [1]: 6%
half-life [2]: 5 h
half-life [3]: 6.6 h
clearance [4]: 3.4 mL/min/kg
Vd [5]: 4.8 L/kg
bioavailability [6]: 61%
Tmax [7]: 2 h
half-life [8]: 17 h
Vd [9]: 1.8 L/kg
half-life [10]: 15 h
Cmax [11]: 115 ng/mL
half-life [12]: 24 h
solubility thermodynamic [13]: 100 µg/mL (≈ 299 µM)
solubility thermodynamic [14]: 100 µg/mL (≈ 299 µM)
Stability [15]: Stable
Activity [16]: Not Active
fraction unbound at 6 h, 1 ug/ml [17]: 0.15
fraction unbound at 6 h, 1 ug/ml [18]: 0.205
fraction unbound at 6 h, 1 ug/ml [19]: 0.152
half-life [20]: 107 h
fraction unbound at 6 h, 1 ug/ml [23]: 0.133
Activity [24]: Dose-dependent effect
Drug uptake [26]: 81 ng/mL
Drug uptake [27]: 122 ng/g
clearance [29]: 5.4 mL/min/kg
Vd [30]: 2.4 L/kg
Cmax [31]: 416 ng/mL
bioavailability [32]: 61%
IC50 [33]: > 10 µM
IC50 [34]: > 10 µM
IC50 [35]: < 0.7 µM
Kp [36]: 2.1
SMILES: CC(C)S(=O)(=O)N[C@H]1Cc2ccc(-c3ccc(F)nc3)cc2C1 [GSK-729327]
Activity [21]: Non-toxic
Activity [22]: Non-toxic
minimal effective dose [25]: 0.3 mg/kg
Activity [28]: Dose-dependent effect
